Earlier results on four compounds are cited in PMC8000448, “Inhibitory Effects of Schisandra Lignans on Cytochrome P450s and Uridine 5′-Diphospho-Glucuronosyl Transferases in Human Liver Microsomes” (Pharmaceutics, 2021).

pIC50, pKi: −log10 of the molar value. Read-outs that look alike come from different tables or passages of the source.

In general, pIC50 refers to the IC50 on a negative log10 scale, so that one unit is a factor of ten. A word on the pKi: it is the negative decadic logarithm of the Ki, by convention in mol/L.

In series [1] the test system is recombinant CYP3A4. Conditions: recombinant CYP3A4 isoform; read-out: IC50, CYP3A-mediated midazolam 1′-hydroxylation; cited from earlier work.
The next series deals with recombinant CYP2C19. Further details: method as in PMID 24855828. The conditions noted are these: read-out: IC50, CYP2C19-catalyzed omeprazole hydroxylation; cited from earlier work.
For series [2], the system named is CYP3A. Conditions: rats; cited from earlier work.
In another series the test system is CYP2C9. Further details: method as in PMID 15342469. Conditions: cited from earlier work.
In the next series the test system is CYP2D6. Further details: method as in PMID 15342469. The conditions noted are these: cited from earlier work.
A further series has as its system CYP2C19. Further details: method as in PMID 15342469. The conditions noted are these: cited from earlier work.
In series [3] the target is CYP3A. The conditions noted are these: read-out: Ki, CYP3A-mediated testosterone hydroxylation; cited from earlier work.
In the next series the test system is CYP1A2. Further details: method as in PMID 15342469. Conditions: cited from earlier work.
Series [4] relates to recombinant CYP3A4. The conditions noted are these: rCYP3A4, fluorescent substrate; cited from earlier work.
Series [5] relates to CYP3A. Further details: method as in PMID 15342469. Conditions: read-out: IC50, CYP3A-mediated testosterone hydroxylase activity; cited from earlier work.

`COc1cc2c(c(OC)c1OC)-c1c(cc3c(c1OC)OCO3)[C@H](OC(=O)c1ccccc1)[C@@](C)(O)[C@@H](C)C2` [gomisin G, reference compound]: in the series on recombinant CYP3A4 [1], the pIC50 is 6.72.
As to `COc1cc2c(c(OC)c1OC)-c1c(cc(OC)c(OC)c1OC)C[C@H](C)[C@H](C)C2` [schisandrin A, reference compound], the pIC50 with recombinant CYP2C19 was 4.06. The “Plasma concentrations of midazolam” value in the series with CYP3A [2] is on record as “markedly increases”.
For gomisin A, the pIC50 with CYP2C9 is less than 5.00; with CYP2D6, less than 5.00; in the series with CYP2C19, less than 5.00; in the series with CYP1A2, less than 5.00; in the series with recombinant CYP3A4 [1], 5.73; with recombinant CYP3A4 [4], 5.86. For the same compound, the pKi on CYP3A [3] was 6.00.
Turning to gomisin B, the pIC50 is less than 5.00 in the series on CYP2C9; less than 5.00 with CYP2D6; 6.21 to 6.59 in the series on CYP3A [5]; less than 5.00 with CYP2C19; less than 5.00 in the series with CYP1A2.
